Measured values taken from US20240140931A1, “TRICYCLIC COMPOUNDS AND USES THEREOF” (HUTCHMED LIMITED, priority 2021, published 2024).

What was measured:
[1] = target: Human full-length SHP2 recombinant protein (Homo sapiens (Human), UniProt Q06124); assay: Assay of full-length SHP2 phosphatase activity; type: biochemical; conditions: DiFMUP substrate, with activating peptide
Method: Example 2 Assay of Full-Length SHP2 Phosphatase Activity
1. Reagents and Materials • Human full-length SHP2 recombinant protein: BPS Bioscience, Cat #79018; • SHP2 substrate DiFMUP (1 mM): BPS Bioscience, Cat #79769; • SHP2 activating peptide (100 μM): BPS Bioscience, Cat #79319-2; • DTT: Merck, Cat #DTT-RO; • 384-well plate: Corning, Cat #3575; • 96-well plate: Thermo Fisher Scientific, Cat #249952; • Instrument: EnVision 2104, PerkinElmer.
2. Preparation of Reaction Solutions
The test compound was dissolved in DMSO and diluted with DMSO to 100.0 μM, and the compound was further 3-fold diluted with DMSO to: 100.00, 33.33, 11.11, 3.70, 1.23, 0.41, 0.14 and 0.05 μM.
3. Experimental Steps • To the corresponding wells of the 384-well plate was added 2.5 μL of 4× test compound or 2.5 μL of 4% DMSO solution, and centrifugation was carried out at 1000 rpm for 30 seconds. • To the test compound well and positive control well was added 2.5 μL of 4× mixed solution of SHP2 enzyme/activating peptide while to the negative control well was added 2.5 μL of 1× enzymatic reaction buffer; centrifugation was carried out at 1000 rpm for 30 seconds and incubation was carried out at room temperature for 30 minutes. • To each well was added 5 μL of 2×DiFMUP substrate to initiate the enzymatic reaction, then the plate was transiently oscillated and centrifuged at 1000 rpm for 30 seconds, and the 384-well plate was sealed with a sealing membrane and incubated at 25° C. on a low-speed shaker (100 rpm) in the dark for 60 minutes. • The fluorescence value (relative fluorescence units, RFU) of each well was detected on EnVision2104 (excitation: 355 nm, emission: 460 nm).
wherein • the RFU of compound well refers to the fluorescence reading at 460 nm of the well containing the test compounds; • the RFU of negative control well refers to the fluorescence reading at 460 nm of the background well containing 1% DMSO and the enzymatic reaction buffer; • the RFU of positive control well refers to the fluorescence reading at 460 nm of the well containing 1% DMSO and the mixed solution of SHP2 enzyme/activating peptide.
(§1) IC50 values were calculated following formula 205: y=A+((B−A)/(1+((C/X)^D))), by using the XL-Fit 5.0 software.

[2] = system: pERK1/2 (Thr202/Tyr204) in Miapaca2 cells; assay: Assay of intracellular pERK1/2 (Thr202/Tyr204) phosphorylation; type: cell-based; conditions: pERK1/2 (Thr202/Tyr204) HTRF
Method: Example 3 Assay of Intracellular pERK1/2 (Thr202/Tyr204) Phosphorylation
1. Reagents and Materials • pERK1/2 (Thr202/Tyr204) HTRF kit: Cisbio, Cat #64ERKPEH; • Cell line: Miapaca2, ATCC, CRL-1420; • OptiPlate™-384-well plate: PerkinElmer, Cat #6007299; • 96-well plate: Corning, Cat #353072; • Instrument: EnVision2104, PerkinElmer.
2. Preparation of Reaction Solutions • The test compound was dissolved in DMSO and diluted with DMSO to 600.0 μM, and the compound was further 3-fold diluted with DMSO to: 600.0, 200.0, 66.7, 22.2, 7.4, 2.5, 0.82 and 0.27 μM. Then 10 μL of the compound at different dilution concentrations was added to 190 μL of a DMEM medium to prepare a 10× test compound, wherein DMSO was at the concentration of 5% (DMSO was at the final concentration of 0.5%). • 1× cell lysis buffer: 4× cell lysis stock solution (provided by the kit) was diluted 4-fold with deionized water, and then 1% 100× blocking stock solution (provided by the kit) was added thereto. • pERK1/2 detection solution (prepared just before use): the pERK1/2 d2 antibody (provided by the kit) and pERK1/2 Cryptate antibody (provided by the kit) were diluted with the detection solution (provided by the kit) at a ratio of 1:1:38.
3. Experimental Steps • Miapaca2 cells were inoculated into a 96-well plate at a density of 10000 cells/well at 90 μL/well and cultured in a cell incubator at 5% CO2 and 37° C. overnight. • 10 μL of 10× test compound was added to the 90 μL cell culture 96-well plate; to the cell positive control well was added 10 μL of 5% DMSO culture solution; and the plate was cultured in a cell incubator at 5% CO2 and 37° C. for 2 hours. • The medium in the 96-well plate was removed; 50 μL of 1× cell lysis buffer was added to each well; the plate was placed in a microplate shaker; and lysis under shaking was carried out at 900 rpm at room temperature for 1 hour. • 16 μL of the lysis buffer in the 96-well plate was taken and transferred to a 384-well plate, and centrifugation was carried out at 1000 rpm for 30 seconds; then 4 μL of pERK1/2 detection solution was added to each well and centrifugation was carried out at 1000 rpm for 30 seconds; and the 384-well plate was sealed with a sealing membrane and incubated at 25° C. on a low-speed shaker (100 rpm) in the dark for 2 hours. • The fluorescence value (relative fluorescence units, RFU) of each well was detected on EnVision2104 (emission 1: 665 nm, emission 2: 615 nm).
wherein • the fluorescence ratio of compound well refers to the fluorescence ratio of the well containing the test compounds; • the fluorescence ratio of negative control well refers to the fluorescence ratio of the background containing the cell lysis buffer and no Miapaca2 cells; • the fluorescence ratio of positive control well refers to the fluorescence ratio of the well containing 0.5% DMSO and Miapaca2 cells.
as §1

Structure (SMILES)	IC50 [1] [nM]	IC50 ([2]; 2 hours) [nM]	IC50 ([2]; Homo sapiens, MIA PaCa-2, 2 h) [nM]
C#Cc1ccc2c(c1)[C@@H](N)C1(CCN(c3cc(=O)n(-c4cccc(OC)c4Cl)c(C)n3)CC1)C2 (atropisomer, axis not shown) [Compound 110]	249	959	
C#Cc1ccc2c(c1)[C@@H](N)C1(CCN(c3cc(=O)n(-c4ccc(C#N)c(Cl)c4Cl)c(C)n3)CC1)C2 (atropisomer, axis not shown) [Compound 192]	> 1000	> 1000	
C#Cc1ccc2c(c1)[C@@H](N)C1(CCN(c3cc(=O)n(-c4ccccc4Cl)c(C)n3)CC1)C2 (single isomer, unassigned) [Compound 56]	2	85	
C#Cc1ccc2c(c1)[C@@H](N)C1(CCN(c3cc(=O)n(-c4ccccc4Cl)c(C)n3)CC1)C2 (single isomer, unassigned) [Compound 57]	28	526	
C#Cc1ccc2c(c1)CC1(CCN(c3ncc(Sc4ccnc(N)c4Cl)c4nccn34)CC1)[C@@H]2N [Compound 1, (S)-1′-(8-((2-amino-3-chloropyridin-4-yl)thio)imidazo[1,2-c]pyrimidin-5-yl)-5-ethynyl-1,3-dihydrospiro[indene-2,4′-piperidin]-1-amine]	2		18
C#Cc1ccc2c(c1)CC1(CCN(c3cnc(Sc4ccnc(N)c4Cl)c(N)n3)CC1)[C@@H]2N [Compound 2]	5		23
C#Cc1ccc2c(c1)CC1(CCN(c3ncc(Sc4ccnc(NCCOC)c4Cl)c4nccn34)CC1)[C@@H]2N [Compound 3]	9		81
C#Cc1ccc2c(c1)CC1(CCN(c3nc(N)c(-c4cn(C)c5ncccc45)c(=O)n3C)CC1)[C@@H]2N [Compound 4, (S)-6-amino-2-(1-amino-5-ethynyl-1,3-dihydrospiro[indene-2,4′-piperidin]-1′-yl)-3-methyl-5-(1-methyl-1H-pyrrolo[2,3-b]pyridin-3-yl)pyrimidin-4(3H)-one]	4		160
C#Cc1ccc2c(c1)CC1(CCN(c3nc(N)c(Sc4ccnc(N)c4Cl)c(=O)n3C)CC1)[C@@H]2N [Compound 5]	2		23
C#Cc1ccc2c(c1)CC1(CCN(c3ncc(-c4cn(C)c5ncccc45)c4nccn34)CC1)[C@@H]2N [Compound 6]	420		> 3000
C#Cc1ccc2c(c1)CC1(CCN(c3ncc(Sc4ccnc(NCCO)c4Cl)c4nccn34)CC1)[C@@H]2N [Compound 7]	10		28
C#Cc1ccc2c(c1)[C@@H](N)C1(CCN(c3ncc(Sc4ccnc(N)c4Cl)c4nccn34)CC1)C2 [Compound 8]	3		8

More lines, now with the values ahead:

IC50 [1] [nM]	IC50 ([2]; 2 hours) [nM]	IC50 ([2]; Homo sapiens, MIA PaCa-2, 2 h) [nM]	Structure (SMILES)
2	15		C#Cc1ccc2c(c1)[C@@H](N)C1(CCN(c3cc(=O)n(-c4cccc(OC)c4Cl)c(C)n3)CC1)C2 (atropisomer, axis not shown) [Compound 111]
2	14		C#Cc1ccc2c(c1)[C@@H](N)C1(CCN(c3cc(=O)n(-c4ccc(F)c(F)c4Cl)c(C)n3)CC1)C2 (atropisomer, axis not shown) [Compound 113]
53	284		C#Cc1ccc2c(c1)[C@@H](N)C1(CCN(c3cc(=O)n(-c4ccc(F)c(F)c4Cl)c(C)n3)CC1)C2 (atropisomer, axis not shown) [Compound 114]
3	40		C#Cc1ccc2c(c1)[C@@H](N)C1(CCN(c3cc(=O)n(-c4cccc(C(F)(F)F)c4Cl)c(C)n3)CC1)C2 (atropisomer, axis not shown) [Compound 118]
178	698		C#Cc1ccc2c(c1)[C@@H](N)C1(CCN(c3cc(=O)n(-c4cccc(C(F)(F)F)c4Cl)c(C)n3)CC1)C2 (atropisomer, axis not shown) [Compound 119]
1.3	15		COCC#Cc1ccc2c(c1)[C@@H](N)C1(CCN(c3cc(=O)n(-c4ccc(F)c(Cl)c4Cl)c(C)n3)CC1)C2 (atropisomer, axis not shown) [Compound 124]
96	175		COCC#Cc1ccc2c(c1)[C@@H](N)C1(CCN(c3cc(=O)n(-c4ccc(F)c(Cl)c4Cl)c(C)n3)CC1)C2 (atropisomer, axis not shown) [Compound 125]
34	155		C#Cc1ccc2c(c1)[C@@H](N)C1(CCN(c3cc(=O)n(-c4ccc(F)c(OC)c4Cl)c(C)n3)CC1)C2 (atropisomer, axis not shown) [Compound 162]
42	154		COCC#Cc1ccc2c(c1)[C@@H](N)C1(CCN(c3cc(=O)n(-c4ccc(F)c(OC)c4Cl)c(C)n3)CC1)C2 (atropisomer, axis not shown) [Compound 164]
44	447		CNC(=O)C#Cc1ccc2c(c1)[C@@H](N)C1(CCN(c3cc(=O)n(-c4cccc(OC)c4Cl)c(C)n3)CC1)C2 (atropisomer, axis not shown) [Compound 181]
253	672		C#Cc1ccc2c(c1)[C@@H](N)C1(CCN(c3cc(=O)n(-c4ccc(C#N)c(OC)c4Cl)c(C)n3)CC1)C2 (atropisomer, axis not shown) [Compound 190]
25	512		CNC(=O)C#Cc1ccc2c(c1)[C@@H](N)C1(CCN(c3cc(=O)n(-c4ccc(F)c(OC)c4Cl)c(C)n3)CC1)C2 (atropisomer, axis not shown) [Compound 200]
58	187		CC#Cc1ccc2c(c1)[C@@H](N)C1(CCN(c3cc(=O)n(-c4ccc(F)c(OC)c4Cl)c(C)n3)CC1)C2 (atropisomer, axis not shown) [Compound 208]
52	527		CNC(=O)C#Cc1ccc2c(c1)[C@@H](N)C1(CCN(c3cc(=O)n(-c4ccc(F)c(F)c4Cl)c(C)n3)CC1)C2 (atropisomer, axis not shown) [Compound 210]
104	944		CC#Cc1ccc2c(c1)[C@@H](N)C1(CCN(c3cc(=O)n(-c4ccc(F)c(F)c4Cl)c(C)n3)CC1)C2 (atropisomer, axis not shown) [Compound 218]
317	> 1000		CC#Cc1ccc2c(c1)[C@@H](N)C1(CCN(c3cc(=O)n(-c4ccc(F)c(Cl)c4Cl)c(C)n3)CC1)C2 (atropisomer, axis not shown) [Compound 220]
